Reference: paper PMC3065546 (Pain, 2011)
Where two headings read alike, the source gives them in different places. Blank lines part the entries; values can stand above or below the compound they belong to.

Experiments:
[1] = target: human δ opioid receptor (Homo sapiens, UniProt P41143); assay: Opioid receptor binding, [3H]naltrindole, CHO cell membranes
[2] = target: human κ opioid receptor (Homo sapiens, UniProt P41145); assay: Opioid receptor binding, [3H]U69,593, CHO cell membranes
[3] = target: T1, cDNA-expressed human CYP2C19 (Homo sapiens, UniProt P33261); assay: biochemical
T1 sequence (P33261 whole entry): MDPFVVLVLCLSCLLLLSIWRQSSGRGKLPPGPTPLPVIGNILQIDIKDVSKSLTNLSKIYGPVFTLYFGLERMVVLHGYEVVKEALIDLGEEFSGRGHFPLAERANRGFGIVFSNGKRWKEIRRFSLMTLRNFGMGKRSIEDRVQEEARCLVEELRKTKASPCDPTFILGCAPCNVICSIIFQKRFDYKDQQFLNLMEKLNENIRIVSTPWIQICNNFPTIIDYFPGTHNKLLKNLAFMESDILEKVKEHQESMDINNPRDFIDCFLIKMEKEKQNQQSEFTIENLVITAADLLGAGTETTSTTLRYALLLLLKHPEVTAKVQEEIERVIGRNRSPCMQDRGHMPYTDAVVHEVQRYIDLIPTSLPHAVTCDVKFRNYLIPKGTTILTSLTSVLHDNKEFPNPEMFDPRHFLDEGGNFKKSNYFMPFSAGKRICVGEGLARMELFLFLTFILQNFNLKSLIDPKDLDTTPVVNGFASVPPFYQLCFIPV

[4] = test system: nociceptive thresholds; type: in vivo, rat; settings: for Antinociceptive effects of inhibitor alone: icv 50, 250, 500 nmol (fluconazole 250 and 500 nmol), TF or HP; for Antinociception of inhibitor alone: large icv doses (250-500 nmol), 7 – 11 min after administration, TF and HP; for Antagonism of azole-induced antinociception by naltrexone: naltrexone 5 mg/kg i.p. pre-treatment, TF 11 min post-icv azole
[5] = test system: brain form of heme oxygenase; settings: ref Suppl. Table 1; cited from earlier work
[6] = test system: improgan antinociception; type: in vivo; settings: improgan 250 nmol icv, TF
[7] = test system: improgan antinociception; type: in vivo, mouse; settings: for Decrease of average improgan antinociception in Cpr^low vs control mice: improgan 145 nmol icv
[8] = target: human μ opioid receptor (Homo sapiens, UniProt P35372); assay: Opioid receptor binding, [3H]DAMGO, CHO cell membranes
Chain of human μ opioid receptor (P35372 whole entry): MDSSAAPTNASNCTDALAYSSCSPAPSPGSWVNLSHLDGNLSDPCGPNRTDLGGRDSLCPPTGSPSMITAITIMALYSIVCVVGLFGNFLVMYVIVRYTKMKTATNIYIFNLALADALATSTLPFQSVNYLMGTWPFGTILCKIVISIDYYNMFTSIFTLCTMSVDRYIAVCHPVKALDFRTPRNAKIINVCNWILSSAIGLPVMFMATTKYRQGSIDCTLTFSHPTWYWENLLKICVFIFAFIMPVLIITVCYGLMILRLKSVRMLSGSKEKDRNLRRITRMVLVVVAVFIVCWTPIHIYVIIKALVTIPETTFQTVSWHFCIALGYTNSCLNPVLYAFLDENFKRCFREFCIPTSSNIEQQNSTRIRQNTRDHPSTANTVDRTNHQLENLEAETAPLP

[9] = target: human H3 receptor (Homo sapiens, UniProt Q9Y5N1); type: binding
Chain of human H3 receptor (Q9Y5N1 whole entry): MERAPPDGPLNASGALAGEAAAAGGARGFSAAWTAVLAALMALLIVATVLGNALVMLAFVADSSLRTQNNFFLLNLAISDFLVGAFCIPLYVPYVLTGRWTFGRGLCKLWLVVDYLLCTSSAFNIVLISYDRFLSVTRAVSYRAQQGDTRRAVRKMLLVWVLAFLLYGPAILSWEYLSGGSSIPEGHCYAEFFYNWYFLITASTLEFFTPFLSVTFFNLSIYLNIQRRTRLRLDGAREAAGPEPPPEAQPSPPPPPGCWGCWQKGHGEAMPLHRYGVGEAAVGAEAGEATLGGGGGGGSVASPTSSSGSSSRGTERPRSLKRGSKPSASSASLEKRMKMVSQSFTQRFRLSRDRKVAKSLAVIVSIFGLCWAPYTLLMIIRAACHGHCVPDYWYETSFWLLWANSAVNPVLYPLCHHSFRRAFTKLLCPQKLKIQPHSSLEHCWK

[10] = target: T1, cDNA-expressed human CYP2C19; settings: read-out: Ki CYP2C19; cited from earlier work

Chain of human κ opioid receptor (P41145 whole entry): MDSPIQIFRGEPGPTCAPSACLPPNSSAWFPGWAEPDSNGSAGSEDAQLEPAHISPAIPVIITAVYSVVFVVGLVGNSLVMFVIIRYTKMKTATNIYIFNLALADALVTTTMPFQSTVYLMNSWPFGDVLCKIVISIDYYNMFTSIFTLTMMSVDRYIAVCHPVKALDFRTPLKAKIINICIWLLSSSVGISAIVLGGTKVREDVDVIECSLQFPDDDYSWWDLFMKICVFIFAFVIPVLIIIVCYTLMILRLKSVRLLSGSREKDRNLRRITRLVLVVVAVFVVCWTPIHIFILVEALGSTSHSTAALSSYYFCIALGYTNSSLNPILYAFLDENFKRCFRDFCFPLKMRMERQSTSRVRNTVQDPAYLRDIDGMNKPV
Chain of human δ opioid receptor (P41143 whole entry): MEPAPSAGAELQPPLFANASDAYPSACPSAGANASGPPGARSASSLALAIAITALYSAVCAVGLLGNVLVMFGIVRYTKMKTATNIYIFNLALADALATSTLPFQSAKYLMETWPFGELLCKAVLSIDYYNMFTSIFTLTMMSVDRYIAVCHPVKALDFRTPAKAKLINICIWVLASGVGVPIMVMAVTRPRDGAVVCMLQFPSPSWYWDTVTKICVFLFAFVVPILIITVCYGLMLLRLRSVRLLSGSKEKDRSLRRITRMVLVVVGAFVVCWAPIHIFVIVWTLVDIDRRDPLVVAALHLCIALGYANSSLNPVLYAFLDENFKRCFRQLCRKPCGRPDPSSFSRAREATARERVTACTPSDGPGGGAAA

SMILES: Clc1ccccc1C(c1ccccc1)(c1ccccc1)n1ccnc1 [Clotrimazole, clotrimazole]
Ki [1]: 770 ± 25 nM
Ki [2]: 260 ± 8.7 nM
Ki [3]: 316 nM
Antinociceptive effects of inhibitor alone [4]: no significant antinociceptive effects

SMILES: OC(Cn1cncn1)(Cn1cncn1)c1ccc(F)cc1F [Fluconazole, fluconazole]
Inhibition of the brain form of heme oxygenase [5]: do not inhibit
Antagonism of improgan antinociception ([6]; inhibitor 100 nmol icv): nearly-complete antagonism
Antinociceptive effects of inhibitor alone [4]: no significant antinociceptive effects

SMILES: CN/C(=N\C#N)NCCCc1c[nH]cn1 [Improgan]
Antinociception in wild-type mice ([7]; 145 nmol icv, 10 - 30 min after administration, tail immersion): significant, near-maximal antinociception
Decrease of average improgan antinociception in Cpr^low vs control mice ([7]; no CC12, 10 min): 59%
Decrease of average improgan antinociception in Cpr^low vs control mice ([7]; no CC12, 20 min): 37%
Decrease of average improgan antinociception in Cpr^low vs control mice ([7]; no CC12, 30 min): 41%

SMILES: CC(=O)N1CCN(c2ccc(OCC3COC(Cn4ccnc4)(c4ccc(Cl)cc4Cl)O3)cc2)CC1 (stereo not drawn) [Ketoconazole, ketoconazole]
Ki [1]: > 10000 nM
Ki [2]: > 10000 nM
Ki [8]: > 10000 nM
Antinociception of inhibitor alone [4]: notable antinociception
Antagonism of azole-induced antinociception by naltrexone [4]: but not that produced by ketoconazole

Ki [1]: > 10000 nM
Ki [9]: 22200 nM
Ki [2]: > 10000 nM
Ki [8]: > 10000 nM
SMILES: C#CCOc1ccccc1CCCCCC(=O)NS(C)(=O)=O [MS-PPOH, N-methylsulfonyl-6-(2-propargyloxyphenyl)hexanamide]
Attenuation of improgan antinociception ([6]; inhibitor 30 nmol icv): virtually complete attenuation
Ki [10]: > 10000 nM

Ki [1]: 590 ± 29 nM
Ki [9]: 4470 nM
Ki [2]: 760 ± 120 nM
Ki [8]: 1400 nM
SMILES: Clc1ccc(COC(Cn2ccnc2)c2ccc(Cl)cc2Cl)c(Cl)c1 (stereo not drawn) [Miconazole, miconazole]
Antagonism of improgan antinociception ([6]; inhibitor 10 nmol icv): nearly-complete antagonism
Antinociception of inhibitor alone [4]: notable antinociception
Antagonism of azole-induced antinociception by naltrexone [4]: did not achieve robust statistical significance

SMILES: Clc1ccc(CSC(Cn2ccnc2)c2ccc(Cl)cc2Cl)cc1 (stereo not drawn) [Sulconazole, sulconazole]
Antagonism of azole-induced antinociception by naltrexone [4]: completely blocked
